# Tested on: depression
# Experiment: Beck Depression Inventory II score, case study of a depressed patient
# Format: in vivo, human
# Conditions: person; after three months of fluoxetine monotherapy (20 mg daily raised to 60 mg daily); score at first visit 28
# Description: “Depression symptoms rating scale” refers to any one of a number of standardized questionnaires, clinical instruments, or symptom inventories utilized to measure symptoms and symptom severity in depression. Such rating scales are often used in clinical studies to define treatment outcomes, based on changes from the study's entry point(s) to endpoint(s). Such depression symptoms rating scales include, but are not limited to, The Quick Inventory of Depressive-Symptomatology Self-Report (QIDS-SR16), the 17-Item Hamilton Rating Scale of Depression (HRSD17), the 30-Item Inventory of Depressive Symptomatology (IDS-C30), or The Montgomery-Asperg Depression Rating Scale (MADRS) and […] Depression Inventory II. Such ratings scales may involve patient self-report or be clinician rated. A 50% or greater reduction in a depression ratings scale score over the course of a clinical trial (starting point to endpoint) is typically considered a favorable response for most depression symptoms rating scales. “Remission” in clinical studies of depression often refers to achieving at, or below, a particular numerical rating score on a depression symptoms rating scale, i.e., less than or equal to 7 on the HRSD17; or less than or equal to 5 on the QIDS-SR16; or less than or equal to 10 on the MADRS or less than or equal to 9 on the Beck Depression Inventory II. […]
smiles,measurement,value
CNCCC(Oc1ccc(C(F)(F)F)cc1)c1ccccc1 (stereo not shown) [fluoxetine],Beck Depression Inventory II score,26

# Reference: patent US12318359B2, “Combination methods and compositions including sleep therapeutics for treating mood” (priority 2012, dated 2025)
